Results taken from patent publication US7527934B2, “Labeled substrate conjugates for identifying enzyme inhibitors” (priority 2004, dated 2009).
Read-outs that look alike come from different tables or passages of the source.

Tests used:
[1] = molecular target: T1, Salmonella typhimurium neuraminidase (Salmonella typhimurium, UniProt P29768); assay: biochemical; type: biochemical
T1 construct: purchased Sigma

[2] = molecular target: Clostridium perfringens neuraminidase; type: biochemical; details: for IC50: pH 6.5, read-out: Solution phase IC50, Clostridium perfringens
[3] = molecular target: T2, Vibrio cholerae neuraminidase (Vibrio cholerae serotype O1, UniProt P0C6E9); assay: biochemical; type: biochemical
T2 construct: purchased Sigma
T2 sequence (P0C6E9 25-781 limits assumed): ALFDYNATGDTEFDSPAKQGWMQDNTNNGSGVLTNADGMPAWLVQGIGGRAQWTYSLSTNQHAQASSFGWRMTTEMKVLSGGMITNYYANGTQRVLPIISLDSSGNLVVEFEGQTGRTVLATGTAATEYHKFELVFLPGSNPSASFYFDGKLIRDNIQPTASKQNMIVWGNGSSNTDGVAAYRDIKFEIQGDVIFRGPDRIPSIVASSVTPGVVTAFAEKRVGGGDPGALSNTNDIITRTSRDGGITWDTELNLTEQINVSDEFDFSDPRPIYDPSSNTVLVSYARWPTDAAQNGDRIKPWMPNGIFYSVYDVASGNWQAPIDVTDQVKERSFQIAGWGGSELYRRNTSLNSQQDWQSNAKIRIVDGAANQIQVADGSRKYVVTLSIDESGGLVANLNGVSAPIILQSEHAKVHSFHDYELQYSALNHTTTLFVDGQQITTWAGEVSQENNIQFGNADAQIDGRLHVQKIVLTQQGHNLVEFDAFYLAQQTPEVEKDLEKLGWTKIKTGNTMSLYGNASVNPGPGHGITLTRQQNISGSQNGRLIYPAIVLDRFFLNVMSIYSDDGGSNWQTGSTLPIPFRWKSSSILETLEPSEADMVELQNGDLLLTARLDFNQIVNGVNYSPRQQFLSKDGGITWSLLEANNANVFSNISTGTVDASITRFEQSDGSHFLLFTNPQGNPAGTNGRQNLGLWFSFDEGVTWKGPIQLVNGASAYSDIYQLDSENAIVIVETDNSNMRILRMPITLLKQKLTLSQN

[4] = molecular target: T1, Salmonella typhimurium neuraminidase; details: value in brackets marked lit; read-out: Solution phase IC50, Salmonella typhimurium, literature value; cited from earlier work
[5] = molecular target: T3, α2,6-sialyltransferase (Rattus norvegicus, UniProt P13721); assay: Sialyltransferase competitive assay; type: biochemical; parameters: purchased Calbiochem
T3 sequence (P13721 1-403): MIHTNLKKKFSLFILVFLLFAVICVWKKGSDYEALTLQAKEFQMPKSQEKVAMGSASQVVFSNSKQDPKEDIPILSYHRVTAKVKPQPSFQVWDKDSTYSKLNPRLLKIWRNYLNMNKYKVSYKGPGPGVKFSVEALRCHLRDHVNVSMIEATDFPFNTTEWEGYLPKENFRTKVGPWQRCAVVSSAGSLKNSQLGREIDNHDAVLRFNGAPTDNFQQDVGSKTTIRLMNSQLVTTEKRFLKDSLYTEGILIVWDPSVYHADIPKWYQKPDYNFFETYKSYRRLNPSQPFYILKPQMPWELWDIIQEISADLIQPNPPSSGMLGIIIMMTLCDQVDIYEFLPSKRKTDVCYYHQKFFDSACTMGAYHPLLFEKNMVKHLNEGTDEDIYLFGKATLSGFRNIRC

[6] = molecular target: T3, α2,6-sialyltransferase; details: read-out: KM value; literature (Gross et al. 1989); cited from earlier work
[7] = test system: α2,3-sialyltransferase; assay: Substrate recognition by sialyltransferase (FRET donor/acceptor); type: biochemical; details: acceptor 0.2 mM, donor 0.1 mM, sialyltransferase 0.2 mU, FIG. 15
[8] = molecular target: T3, α2,6-sialyltransferase; assay: as above; type: biochemical; parameters: purchased Calbiochem; details: acceptor 0.2 mM, donor 0.1 mM, sialyltransferase 0.2 mU, FIG. 15

T1 sequence (P29768 whole entry): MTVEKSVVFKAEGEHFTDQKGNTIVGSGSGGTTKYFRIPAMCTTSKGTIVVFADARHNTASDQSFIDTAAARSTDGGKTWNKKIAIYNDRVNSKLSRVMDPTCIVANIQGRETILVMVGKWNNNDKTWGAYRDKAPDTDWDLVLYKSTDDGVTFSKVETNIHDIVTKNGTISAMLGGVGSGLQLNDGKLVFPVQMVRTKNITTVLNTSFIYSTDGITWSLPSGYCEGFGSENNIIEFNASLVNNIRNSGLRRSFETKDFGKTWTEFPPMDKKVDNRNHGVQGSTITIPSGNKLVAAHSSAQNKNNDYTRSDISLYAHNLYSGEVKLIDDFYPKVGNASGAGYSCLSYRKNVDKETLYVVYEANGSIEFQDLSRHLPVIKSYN

| Molecule | IC50 [1] [µM] | IC50 [2] [µM] | IC50 [3] [µM] | further results |
| --- | --- | --- | --- | --- |
| CC(=O)NC1C(O)CC(O)(C(=O)O)OC1[C@H](O)[C@H](O)CO (stereo partly shown) | > 2000 | > 2000 | > 2000 |  |
| CC(=O)NC1C(N)C=C(C(=O)O)OC1[C@H](O)[C@H](O)CO (stereo partly shown) | > 2000 | > 2000 | > 2000 |  |
| CC1=NC2C(O)C=C(C(=O)O)OC2C(CC(=O)N[C@@H](C(N)=O)C2CCCCC2)O1 (stereo partly shown) | > 2000 | 1600 | > 2000 |  |
| CC(=O)NC1C(NC(=N)N)C=C(C(=O)O)OC1[C@H](OC(N)=O)[C@H](O)CO (stereo partly shown) | > 2000 | > 2000 | 250 |  |
| CC(=O)NC1C(O)C=C(C(=O)O)OC1[C@H](O)[C@H](O)CO (stereo partly shown) [2-deoxy-2,3-dehydro-N-acetylneuraminic acid] | 310 | 4 |  | Inhibition of Salmonella typhimurium neuraminidase [1]: good inhibitor; Inhibition of Clostridium perfringens neuraminidase [2]: good inhibitor; IC50 [4]: 350 µM; Inhibition of Vibrio cholerae neuraminidase [3]: good inhibitor |
| CC(=O)NC1C(NC(=N)N)C=C(C(=O)O)OC1[C@H](O)[C@H](O)CO (stereo partly shown) [4-guanidino-2-deoxy-2,3-didehydro-N-acetylneuraminic acid] | > 2000 |  | 200 | Inhibition of Vibrio cholerae neuraminidase [3]: inhibitor |
| CC(=O)NC1C(O)CC(OP(=O)(O)OC[C@H]2O[C@@H](n3ccc(N)nc3=O)[C@@H](O)C2O)(C(=O)O)OC1[C@H](O)[C@H](O)CO (stereo partly shown) [CMP-Neu5Ac, cytidine monophosphate N-acetylneuraminic acid] |  |  |  | IC50 [5]: 85 µM; Km [6]: 45 µM |
| NC(=O)C(Cc1ccc(O)c([N+](=O)[O-])c1)NC(=O)Cc1cc(=O)oc2cc(O)ccc12 (stereo not shown) [Compound 41, 3-(4-Hydroxy-3-nitro-phenyl)-2-[2-(7-hydroxy-2-oxo-2H-chromen-4-yl)-acetylamino]-propionamide] |  |  |  | melting point: 203 °C |
| NC(=O)C(Cc1ccc(O)c([N+](=O)[O-])c1)NC(=O)CCC(=O)NCCOCCOCCNC(=O)Cc1cc(=O)oc2cc(O)ccc12 (stereo not shown) [Compound 42, N-[1-Carbamoyl-2-(4-hydroxy-3-nitro-phenyl)-ethyl]-N′-[2-(2-{2-[2-(7-hydroxy-2-oxo-2H-chromen-4-yl)-acetylamino]-ethoxy}-ethoxy)-ethyl]-succinamide] |  |  |  | melting point: 115 °C |
| N[C@@H](Cc1ccc(O)c([N+](=O)[O-])c1)C(=O)NCCO[C@@H]1O[C@H](CO)[C@@H](O[C@@H]2O[C@H](CO)[C@H](O)[C@H](O)[C@H]2O)[C@H](O)[C@H]1O [acceptor 64, 2-(3-Nitro-L-tyrosyl-amide)ethyl β-D-galactopyransyl-(1→4)-O-β-D-glucopyranoside] |  |  |  | Substrate recognition by α2,3-sialyltransferase [7]: poor substrate recognition; Substrate recognition by α2,6-sialyltransferase [8]: poor substrate recognition |
| CC(=O)N[C@H]1[C@H](OCCNC(=O)[C@@H](N)Cc2ccc(O)c([N+](=O)[O-])c2)O[C@H](CO)[C@@H](O[C@@H]2O[C@H](CO)[C@H](O)[C@H](O)[C@H]2O)[C@@H]1O [acceptor 69, 2-(3-Nitro-L-tyrosyl-amide)ethyl β-D-galactopyransyl-(1→4)-O-2-acetamido-2-deoxy-β-D-glucopyranoside] |  |  |  | Substrate recognition by α2,3-sialyltransferase [7]: good substrates; Substrate recognition by α2,6-sialyltransferase [8]: good substrates |
| CMP-5-(7-hydroxy-4-coumarinyl-acetamido)-NeuAc [donor 55] |  |  |  | Substrate recognition by α2,3-sialyltransferase [7]: good substrates; Substrate recognition by α2,6-sialyltransferase [8]: good substrates |
